Key:
[1] = test system: hTAU transgenic mouse model; experiment: Preeclampsia serum-induced onset of AD features in the hTAU transgenic mouse model (Example 7); type: in vivo; details: weekly trehalose (2 mg/kg) from 2 months (60 day old mice) for one month; preeclampsia serum injected at 1 month
Method: The efficacy with which trehalose inhibits the onset of Alzheimer's disease (AD) features was assessed using the hTAU transgenic mouse model at ages of 3, 6, 9, and 12 months. The onset of AD features were preempted by the administration of serum obtained from pregnant women with normal pregnancy or preeclampsia.

human trophoblasts = experiment: AD serum-induced protein aggregation in primary human trophoblasts, ProteoStat staining; type: cell-based; details: 50 mM trehalose, 10% AD patient serum, 72 hours
Method: (§1) Primary human trophoblasts and SHSY cells were cultured and washed with serum-free media at 70% confluency. The cells were then cultured with 10% serum samples from AD patients for 72 hours (trophoblasts) and 24 hours (neuronal cells), respectively, in the absence or presence of 50 mM trehalose. Cells were stained with ProteoStat dye and evaluated for accumulation of protein aggregates.

SHSY neuronal cells = experiment: AD serum-induced protein aggregation in SHSY neuronal cells, ProteoStat staining; type: cell-based; details: 50 mM trehalose, 10% AD patient serum, 24 hours
Method: as §1

hTAU mice [2] = experiment: Brain pathology (AT180 hyperphosphorylated Tau staining of mPFC) in e-PES injected hTAU mice (Example 8); type: in vivo, mouse; details: trehalose 2 g/kg/week i.p. for 4 weeks after 4 weeks of e-PES injection
Method: 10-12 week old non-pregnant female hTAU mice were injected with e-PE serum (100 μL/week for 4 weeks) followed by treatment (i.p injection) with either saline (100 μL /week) or Trehalose (2 g/kg/week) for 4 weeks, followed by 2 weeks of resting period prior to biological assessments. Medial prefrontal cortex (mPFC) was stained for hyperphosphorylated Tau (using antibody AT180 which detects Tau hyperphosphorylation at T231 & S235). FIG: 19A: Confocal images stained with AT180 are shown that correspond to the mPFC of control (upper), e-PES (middle), and e-PES+Trehalose (bottom), with quantification data in mPFC being present at right panels; inset images are the high magnification image of the selected area; FIG. 19B: provides a bar graph showing the number of AT180 positive cells/0.1 mm^2 in hTAU control, PES 49, and PES 49+trehalose treated mice.
10-12 weeks old non-pregnant female hTAU mice were injected with e-PE serum (100 μL/week for 4 weeks) followed by treatment (i.p injection) with either saline (100 μL/week) or Trehalose (2 g/kg/week) for 4 weeks, followed by 8-10 weeks of resting period prior to biological assessment. Medial prefrontal cortex (mPFC) was stained for hyperphosphorylated Tau (using antibody AT180 which detects Tau hyperphosphorylation at T231 & S235). […]
Brain pathologies were evaluated in a group of mice at 4 and 6 months of age.

hTAU mice [3] = experiment: Nesting activity assay in e-PES injected hTAU mice; type: in vivo, mouse
Method: FIG. 21A: provides photographs of representative nests constructed by the mice; FIG. 21B and FIG. 21D provide bar graphs showing nestlet score for 4-month old (FIG. 21B) and 6-month old (FIG. 21D) mice; FIG. 21C and FIG. 21E provide bar graphs showing untorn nestlet weight for 4-month old (FIG. 21C) and 6-month old (FIG. 21E) mice.
Nesting activity was assessed using a modified scoring criteria to rate the quality of nest construction and the amount of torn nestlet material. Following the nocturnal period, untorn nesting material was weighed, and nests were photographed for scoring on a 0-7 ordinal scale modified from published criteria. Nestlet scores and weights are shown as mean+SEM; *p<0.05 versus controls. Preeclampsia serum was used to observe significant effects in hTAU mice without waiting for 9-12 months of age.
(§2) 100 μL e-PES (early-onset preeclampsia serum) was injected in 10-12 weeks old non-pregnant female hTAU mice. The i.p. injection was performed once a week for 4 weeks. Trehalose treatment (2 g/kg/week) or saline (100 μL/week) was initiated after completion of 4 weeks of e-PES injection cycle. At the end of the trehalose treatment, a group of mice (n=5 for each group) was sacrificed after 2 weeks of resting biological activity (FIG. 18).
(§3) Another two groups were kept to assess their behavioral and brain pathological outcomes (i.e., nesting behavior and/or sensory motor coordination).

hTAU mice [4] = experiment: Ledge assay (sensorimotor coordination) in e-PES injected hTAU mice; type: in vivo, mouse; details: for falling off of the ledge / mobility: e-PES+trehalose mice
Description: FIGS. 22A-22C provide the results of sensory-motor coordination studies utilizing a ledge assay. hTAU mice were compared to hTAU mice injected with e-PES at 10-12 weeks age (n=5) with or without trehalose administration. […] FIG. 22C provides a bar graph comparing time spent on the ledge (seconds) for each subset of mice (i.e., hTAU control, PES 49, and PES 49+trehalose).
Sensorimotor coordination deficits were detected by the ledge assay. In the ledge assay, mice were placed on the elevated cage's ledge at a height of 35 cm and width of 0.8 cm and their movement was monitored. Each mouse was tested three times (approximately 20 seconds) and scored from 0 to 3 depending on the severity of deficits.
as §2, §3

[5] = for humans, by the FDA, based on safety studies in mice, rats and rabbits, including during pregnancy; cited from earlier work
[6] = e-PES alone compared to control and e-PES+trehalose treated hTAU mice (n=5), 6 months

Compound: OC[C@H]1O[C@H](O[C@H]2O[C@H](CO)[C@@H](O)[C@H](O)[C@H]2O)[C@H](O)[C@@H](O)[C@@H]1O [trehalose, (2R,2′R,3 S,3′S,4S,4′S,5R,5′R,6R,6′R)-6,6′-oxybis(2-(hydroxymethyl)tetrahydro-2H-pyran-3,4,5-triol)]
- onset of AD features [1]: inhibited the onset of AD features
- AD serum-caused protein aggregation (human trophoblasts): could be inhibited
- AD serum-caused protein aggregation (SHSY neuronal cells): could be inhibited
- hTAU burden (hTAU mice [2]): reduced hTAU burdern
- nestlet score at 4 months of age (hTAU mice [3]; between control and indicated treatment groups, 4 month old hTAU mice): no significant changes
- nestlet score at 6 months of age (hTAU mice [3]; [6]): significantly lower nestlet scores
- untorn nestlet weight at 6 months of age (hTAU mice [3]; [6]): significantly greater untorn nestlet weights
- cognitive decline (hTAU mice [3]; limited (4 weeks) treatment with trehalose, 2 g/kg/week): improved cognitive decline
- falling off of the ledge / mobility (hTAU mice [4]): immobile, not falling off
- falling off of the ledge / mobility (hTAU mice [4]; listed as Trehalose): did not fall off of the ledge frequently
- motor activity (hTAU mice [4]; trehalose 2 g/kg/week for 4 weeks after e-PES injection): could not restore motor activity completely
- sensorimotor coordination deficits (hTAU mice [4]; trehalose 2 g/kg/week for 4 weeks after e-PES injection at 10-12 weeks of age): partially prevented
- time spent on the ledge (hTAU mice [4]; trehalose treated mice (n=5) compared to only e-PES treated mice): significantly more time on the ledge
- safety status [5]: generally regarded as safe
